From ChEMBL document CHEMBL1152272, “Inhibitor scaffolds for 2-oxoglutarate-dependent histone lysine demethylases” (J Med Chem, 2008)

Legend:
[1] = Inhibition of 2-oxoglutarate-dependent human JMJD2E in presence of excess H3K9me3 peptide and 10 uM Fe2 by FDH coupled assay
[2] = Inhibition of 2-oxoglutarate-dependent human JMJD2E in presence of excess 2-oxoglutarate and 10 uM Fe2 by FDH coupled assay
[3] = Inhibition of 2-oxoglutarate-dependent human JMJD2E in presence of 50 uM Fe by FDH coupled assay
[4] = Inhibition of 2-oxoglutarate-dependent human JMJD2E preincubated for 30 mins by FDH coupled assay
[5] = Inhibition of human collagene prolyl-4-hydroxylase
Prolyl hydroxylase EGLN3 = Prolyl hydroxylase EGLN3 (Homo sapiens, UniProt Q9H6Z9); test: Inhibition of human recombinant HIF PHD3
Sequence of Prolyl hydroxylase EGLN3 (Q9H6Z9 whole entry): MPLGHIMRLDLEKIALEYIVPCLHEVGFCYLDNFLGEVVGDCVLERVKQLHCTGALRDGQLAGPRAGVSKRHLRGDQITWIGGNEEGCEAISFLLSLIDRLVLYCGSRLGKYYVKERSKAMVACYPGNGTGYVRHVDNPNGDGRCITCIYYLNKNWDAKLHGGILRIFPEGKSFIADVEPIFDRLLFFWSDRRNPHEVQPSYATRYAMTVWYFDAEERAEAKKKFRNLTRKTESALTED

[6] = Inhibition of human collagene prolyl-3-hydroxylase
Prolyl hydroxylase EGLN2 = Prolyl hydroxylase EGLN2 (Homo sapiens, UniProt Q96KS0); test: Inhibition of human recombinant HIF PHD1
Sequence of Prolyl hydroxylase EGLN2 (Q96KS0 whole entry): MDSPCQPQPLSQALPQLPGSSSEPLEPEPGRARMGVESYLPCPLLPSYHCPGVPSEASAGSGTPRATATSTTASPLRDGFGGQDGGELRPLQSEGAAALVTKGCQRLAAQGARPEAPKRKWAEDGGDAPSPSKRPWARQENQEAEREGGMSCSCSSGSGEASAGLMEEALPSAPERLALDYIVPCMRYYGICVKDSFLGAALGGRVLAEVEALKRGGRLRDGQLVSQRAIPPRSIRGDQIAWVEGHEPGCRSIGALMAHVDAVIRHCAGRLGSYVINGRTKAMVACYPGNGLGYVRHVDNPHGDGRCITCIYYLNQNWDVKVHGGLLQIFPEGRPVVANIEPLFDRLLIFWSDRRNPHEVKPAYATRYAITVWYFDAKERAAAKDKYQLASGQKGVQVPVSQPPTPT

Egl nine homolog 1 [7] = biological target: T1, Egl nine homolog 1 (Homo sapiens, UniProt Q9GZT9); test: Inhibition of 2-oxoglutarate-dependent human recombinant HIF PHD2 preincubated for 1 hr
T1 sequence (Q9GZT9 whole entry): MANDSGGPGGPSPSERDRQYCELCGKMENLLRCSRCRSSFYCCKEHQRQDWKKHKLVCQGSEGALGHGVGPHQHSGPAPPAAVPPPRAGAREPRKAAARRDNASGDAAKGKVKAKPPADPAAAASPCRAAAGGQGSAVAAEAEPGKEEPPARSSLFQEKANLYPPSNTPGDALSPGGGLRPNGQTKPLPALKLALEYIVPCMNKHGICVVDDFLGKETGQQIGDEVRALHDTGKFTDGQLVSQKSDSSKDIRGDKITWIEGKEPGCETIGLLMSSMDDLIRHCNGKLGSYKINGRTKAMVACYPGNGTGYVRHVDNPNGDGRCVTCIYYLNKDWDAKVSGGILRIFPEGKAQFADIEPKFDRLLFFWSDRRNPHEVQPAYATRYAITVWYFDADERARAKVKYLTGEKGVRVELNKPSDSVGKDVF

[8] = biological target: Hypoxia-inducible factor 1-alpha inhibitor (Homo sapiens, UniProt Q9NWT6); test: Inhibition of human FIH
Sequence of Hypoxia-inducible factor 1-alpha inhibitor (Q9NWT6 whole entry): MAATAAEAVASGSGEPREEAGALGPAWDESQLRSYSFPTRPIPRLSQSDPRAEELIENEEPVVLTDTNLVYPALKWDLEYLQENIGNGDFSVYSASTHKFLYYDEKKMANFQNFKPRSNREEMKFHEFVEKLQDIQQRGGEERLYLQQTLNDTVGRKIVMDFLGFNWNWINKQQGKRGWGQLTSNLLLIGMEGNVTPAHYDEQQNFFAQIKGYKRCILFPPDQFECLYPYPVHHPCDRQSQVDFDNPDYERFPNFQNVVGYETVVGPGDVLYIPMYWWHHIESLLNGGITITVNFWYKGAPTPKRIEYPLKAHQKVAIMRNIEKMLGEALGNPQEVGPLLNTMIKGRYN

Egl nine homolog 1 [9] = biological target: T1, Egl nine homolog 1; test: Inhibition of human recombinant PHD2

Compound	IC50 [1]	IC50 [2]	further results
O=C(O)c1ccncc1C(=O)O	> 10000 µM	> 10000 µM	
O=C(O)c1ccnc(C(=O)O)c1		4.7 µM	Ki [5]: 2 µM; IC50 [3]: 1.8 µM; Ki (Prolyl hydroxylase EGLN3): 7 µM; Ki [6]: 9 µM; Ki (Prolyl hydroxylase EGLN2): 7 µM
O=C(O)c1cncc(C(=O)O)c1	> 10000 µM	> 10000 µM	
O=C(O)C(=O)N[C@H](Cc1ccccc1)C(=O)O		590 µM	
COc1ccc(O)cc1C(=O)NO	230 µM	300 µM	IC50 [3]: 160 µM
CCCC(=O)O [BUTYRIC ACID]	> 10000 µM	> 10000 µM	
O=C(O)c1cccc(C(=O)O)n1 [DIPICOLINIC ACID]	120 µM	250 µM	IC50 [3]: 120 µM
O=C(O)/C=C/C(=O)O [FUMARIC ACID]	1600 µM	> 10000 µM	IC50 (Egl nine homolog 1 [7]): 3 µM; IC50 [4]: 2300 µM
O=C(O)CNC(=O)C(=O)O [N-OXALYLGLYCINE]			Ki [8]: 1200 µM
O=C(O)c1ccc(C(=O)O)nc1 [PYRIDINE-2,5-DICARBOXYLIC ACID]	180 µM	1900 µM	Ki [5]: 0.8 µM; Ki (Egl nine homolog 1 [9]): > 300 µM; Ki (Prolyl hydroxylase EGLN3): > 300 µM; Ki [6]: > 1000 µM; Ki (Prolyl hydroxylase EGLN2): > 300 µM
O=C(O)CCC(=O)O [SUCCINIC ACID]	710 µM	> 10000 µM	IC50 [4]: 320 µM
CC(/C=C/C(=O)NO)=C\[C@@H](C)C(=O)c1ccc(N(C)C)cc1 [TRICHOSTATIN]			IC50 [4]: 28 µM

The next lines start with results.

IC50 [1]	IC50 [2]	Compound	further results
28 µM	300 µM	O=C(NO)c1cccc(O)c1	IC50 [3]: 19 µM; IC50 [4]: 4.8 µM
100 µM	270 µM	O=C(O)C(=O)N[C@H](CCc1ccccc1)C(=O)O	IC50 [4]: 39 µM
27 µM	73 µM	O=C(O)c1cc(C(=O)O)ncn1	
360 µM	340 µM	O=C(NO)c1cc(O)ccc1Oc1ccccc1	
> 5000 µM	> 10000 µM	O=C(O)c1cccnc1C(=O)O [QUINOLINIC ACID]	
